# US20120149080A1, “YEAST PRODUCTION CULTURE FOR THE PRODUCTION OF BUTANOL” (Butamax(TM) Advanced Biofuels LLC, priority 2010, published 2012)
# How the values were obtained:
# [1] = Alcohol concentration of cultures after 24 hours by HPLC; format: physicochemical; details: Example 2 cultures, 30° C.
# Method: Saccharomyces cerevisiae BY4743 (ATCC 201390) was plated from a freezer vial onto YPD agar (Teknova, Hollister, Calif.; Cat. #Y1000) and incubated overnight at 30° C. Cells from the YPD plate were inoculated into a 25 ml pre-culture of YPD broth (Teknova; Cat. #Y5000) with an initial OD600 of 0.06 to 0.08. The pre-culture was grown for 7 hours in an aerobic shaker at 30° C. An aliquot of the pre-culture was inoculated into 200 ml of YPD broth, with an initial OD600 of 0.06 to 0.08, and this culture was incubated with aeration at 30° C. for approximately 17 hours. The optical density of the culture was measured, the culture was centrifuged and the cells were resuspended to yield an OD600 of 5 in fresh YPD broth. This is referred to as a high cell density (HCD) culture. […] This is referred to as a low the cell density (LCD) culture. These cultures were incubated at 30° C. with shaking for 30 minutes for an acclimation period. At the end of the 30 minute acclimation period, the OD600 was measured. 5 ml of low or high cell density culture was dispensed to 15 ml conical tubes which contained different concentrations of the alcohol to be tested. […] All samples were filtered with Acrodisc CR PTFE 0.2 μm filters (Pall Life Sciences, Port Washington, N.Y.) and analyzed using a Shodex SH1011 column (8 mm ID×300 mm length; Showa Denko America, Inc., New York, N.Y.) and a Shodex SH-G as a guard column. […]
# [2] = system: Issatchenkia orientalis PNY0575; assay: 24 h survival (CFU) of non-Saccharomyces yeast, HCD/LCD; format: cell-based; details: for Percent Survival HCD: high cell density; for Percent Survival LCD: low cell density
# Method: Non-Saccharomyces yeast strains were tested to determine whether isobutanol tolerance is affected by cell density for these yeasts. Kluyveromyces marxianus PNY0577 (American Type Culture Collection (“ATCC”), Manassas, Va.; ATCC #8554), Kluyveromyces marxians PNY0578 (ATCC #16045), Pichia membranifaciens PNY0572, Pichia anomala PNY0573, Pichia sp. PNY0574, Issatchenkia orientalis PNY0575 and Issatchenkia orientalis PNY0576 were tested. The Pichia and Issatchenkia strains used are wild-type representatives of the designated genera. Other representative strains are commercially available, for example, from ATCC.
# The non-Saccharomyces yeast strains were plated from freezer vials onto YPD agar (Teknova, Hollister, Calif.) and incubated overnight at 30° C. Cells from each strain from the YPD plates were inoculated into a 25 ml pre-culture of YPD broth) (Teknova, Hollister, Calif.) with an initial OD600 of 0.06 to 0.08 and grown for 7 hours in an aerobic shaker at 30° C. An aliquot of each pre-culture was inoculated into 200 ml YPD broth, to provide an initial OD600 of 0.06 to 0.08 and the resulting culture was incubated with aeration at 30° C. for approximately 17 hours. The optical density of the culture was measured, the culture was centrifuged and the cells were resuspended to yield an OD600 of 5 in fresh YPD broth. This is referred to as a high cell density (HCD) culture. This culture was diluted 100 fold into fresh YPD broth to give a culture with an OD600 of 0.05. This is referred to as a low cell density (LCD) culture. These cultures were incubated at 30° C. with shaking for 30 minutes for an acclimation period. At the end of the 30 minute acclimation period, the OD600 was measured.
# 5 ml of low or high cell density culture was dispensed to 15 ml conical tubes which contained the concentrations of isobutanol to be tested. The tubes were placed in a rotary drum at 30° C. and incubated for 24 hours. The isobutanol concentration was 1.0% or 2.0%. A control culture for each strain contained no isobutanol. The time of addition of cells was “time 0”. […] All samples were filtered with Acrodisc CR PTFE 0.2 μm filters (Pall Life Sciences, Port Washington, N.Y.) and analyzed using a Shodex SH1011 column (8 mm ID×300 mm length; Showa Denko America, Inc., New York, N.Y.) and a Shodex SH-G as a guard column. The injection volume was 10 μL. The mobile phase was 0.01N sulfuric acid. The column temperature was 50° C. with a mobile phase flow rate of 0.5 mL/min. For detection, a photometric detector at 210 nm and a refractive index detector were used.
# Colony forming units (CFUs) were determined on YPD plates at time 0 for the controls and at 24 hours for all samples, including the control cultures, using standard microbiological methods. Essentially, cells were serially diluted in a microtiter plate (20 μl of the culture and 180 μl of YPD broth) and 10 μl of the various dilutions were spotted onto triplicate agar plates and incubated at 30° C. for 24 and 48 hours. Colonies were counted after 48 hours and CFUs/ml were calculated. The percent survival was calculated based on the CFUs/ml of the 24 hour HCD or LCD control culture for each strain and results are given in Table 3.
structure (smiles),measurement,setting,value
"CC(C)CO [Isobutanol, isobutanol]",alcohol lost during the incubation period,[1],< 0.01%
same,Percent Survival HCD,"[2]; PNY0575, 1% isobutanol",61.3%
same,Percent Survival LCD,"[2]; PNY0575, 1% isobutanol",3.1%
same,Percent Survival HCD,"[2]; PNY0575, 2% isobutanol",<0.001%
same,Percent Survival LCD,"[2]; PNY0575, 2% isobutanol",<0.001%
